We go through 28 compounds from ChEMBL document CHEMBL1156812, “Novel synthesis of the hexahydroimidazo[1,5b]isoquinoline scaffold: application to the synthesis of glucocorticoid receptor modulators” (J Med Chem, 2010).

Experiment [1] addresses T1, Glucocorticoid receptor (Homo sapiens, UniProt P04150).
T1 sequence (P04150 whole entry): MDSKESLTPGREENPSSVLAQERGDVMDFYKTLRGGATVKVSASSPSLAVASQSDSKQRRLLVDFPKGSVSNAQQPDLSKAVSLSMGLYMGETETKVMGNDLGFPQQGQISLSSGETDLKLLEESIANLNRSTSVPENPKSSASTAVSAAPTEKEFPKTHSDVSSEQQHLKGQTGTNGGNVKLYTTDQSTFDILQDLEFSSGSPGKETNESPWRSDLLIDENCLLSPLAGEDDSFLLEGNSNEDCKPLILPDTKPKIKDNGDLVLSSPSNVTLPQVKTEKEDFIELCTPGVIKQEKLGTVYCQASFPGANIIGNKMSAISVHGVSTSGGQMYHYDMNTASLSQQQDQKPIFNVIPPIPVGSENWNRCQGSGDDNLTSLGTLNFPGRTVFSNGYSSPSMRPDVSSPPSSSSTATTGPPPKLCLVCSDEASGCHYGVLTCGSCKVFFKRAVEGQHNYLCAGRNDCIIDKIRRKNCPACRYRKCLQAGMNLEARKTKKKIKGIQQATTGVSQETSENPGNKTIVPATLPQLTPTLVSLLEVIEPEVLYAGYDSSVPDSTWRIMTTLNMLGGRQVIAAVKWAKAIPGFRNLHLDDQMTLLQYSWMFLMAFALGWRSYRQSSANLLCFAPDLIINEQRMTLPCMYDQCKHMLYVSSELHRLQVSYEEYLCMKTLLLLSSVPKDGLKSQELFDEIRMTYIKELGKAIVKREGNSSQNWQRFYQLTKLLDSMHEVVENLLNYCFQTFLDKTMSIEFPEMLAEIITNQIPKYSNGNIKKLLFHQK
Kind of experiment: Displacement of GS-red from human glucocorticoid receptor by fluorescent polarization assay.

The target of experiment [2] is T1, Glucocorticoid receptor. Kind of experiment: Transrepression activity at glucocorticoid receptor expressed in human A549 cells assessed as inhibition of PMA-induced AP1 activity after 6 hrs by luciferase reporter gene assay. Format: cell-based. (A reporter such as luciferase makes a cellular process visible.)
The target of experiment [3] is T1, Glucocorticoid receptor. Kind of experiment: Transrepression activity at glucocorticoid receptor expressed in human A549 cells assessed as inhibition of IL-1-beta-induced NF-kappaB dependent E-selection promoter activation after 6 hrs by luciferase reporter gene based ELAM assay. Format: cell-based.
Experiment [4] concerns the target T1, Glucocorticoid receptor. The experiment can be described thus: Transactivation of GAL-4 tagged glucocorticoid receptor ligand binding domain expressed in human HeLa cells assessed as NP1 activation by luciferase reporter gene assay. Format: cell-based.
The next experiment concerns the target T2, Androgen receptor (Homo sapiens, UniProt P10275).
T2 sequence (P10275 whole entry): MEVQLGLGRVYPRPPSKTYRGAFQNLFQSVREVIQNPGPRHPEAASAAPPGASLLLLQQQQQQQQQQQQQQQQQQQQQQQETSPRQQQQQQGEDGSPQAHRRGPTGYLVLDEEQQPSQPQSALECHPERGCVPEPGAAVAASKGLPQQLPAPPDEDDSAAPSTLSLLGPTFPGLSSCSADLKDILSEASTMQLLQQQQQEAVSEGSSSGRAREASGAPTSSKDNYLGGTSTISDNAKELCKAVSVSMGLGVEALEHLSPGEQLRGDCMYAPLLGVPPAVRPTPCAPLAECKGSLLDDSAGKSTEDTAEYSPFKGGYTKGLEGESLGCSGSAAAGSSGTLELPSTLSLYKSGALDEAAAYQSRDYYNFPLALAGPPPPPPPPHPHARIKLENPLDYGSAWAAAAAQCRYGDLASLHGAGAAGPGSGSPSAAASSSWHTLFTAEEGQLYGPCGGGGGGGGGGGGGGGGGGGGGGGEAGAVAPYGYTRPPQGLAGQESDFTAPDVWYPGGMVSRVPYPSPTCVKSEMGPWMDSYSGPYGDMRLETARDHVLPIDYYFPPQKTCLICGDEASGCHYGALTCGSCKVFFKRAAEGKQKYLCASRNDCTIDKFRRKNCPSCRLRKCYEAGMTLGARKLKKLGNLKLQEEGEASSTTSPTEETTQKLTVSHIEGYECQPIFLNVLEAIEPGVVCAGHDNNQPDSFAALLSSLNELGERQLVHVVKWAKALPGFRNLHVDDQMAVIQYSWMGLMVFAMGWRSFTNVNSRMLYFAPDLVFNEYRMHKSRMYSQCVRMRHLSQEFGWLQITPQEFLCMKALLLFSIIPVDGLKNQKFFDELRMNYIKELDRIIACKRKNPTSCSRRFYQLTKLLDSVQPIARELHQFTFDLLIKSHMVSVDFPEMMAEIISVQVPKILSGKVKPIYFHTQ
The experiment can be described thus: Binding affinity to androgen receptor.

One may read the Ki as the dissociation constant of the complex between target and ligand, obtained from inhibition or displacement. The EC50 is the concentration giving half of the maximal effect. In general, IC50 refers to the concentration that inhibits the measured activity by half. A high value points to a need for much substance. As to `C[C@]12Cn3cnc(-c4ccc(F)cc4)c3C=C1CCC[C@@H]2[C@](C)(O)C1CCCCC1`, the affinity at Glucocorticoid receptor [1] corresponds to a Ki of 3.1 nM. The 50% effective concentration (EC50) on Glucocorticoid receptor [2] came out at 2 nM; on Glucocorticoid receptor [3] it was 33 nM; on Glucocorticoid receptor [4], 470 nM. The half-maximal inhibitory concentration (IC50) at Androgen receptor is > 4000 nM.
On to `C=CCC(O)C1CCCC2=Cc3c(-c4ccc(F)cc4)ncn3CC21C` (single isomer, unassigned; diastereomer 1), for which the affinity on Glucocorticoid receptor [1], expressed as Ki, was 8 nM. In addition, the EC50 on Glucocorticoid receptor [2] is > 2500 nM; at Glucocorticoid receptor [3] it was > 5000 nM.
For the compound `C=CC[C@H](O)C1CCCC2=Cc3c(cnn3-c3ccc(F)cc3)C[C@@]21C` (stereo not given in full), the inhibition constant (Ki) on Glucocorticoid receptor [1] worked out at 3.9 nM. Moreover, the EC50 on Glucocorticoid receptor [2] was 9.3 nM. On Androgen receptor, the half-maximal inhibitory concentration (IC50) is > 4000 nM.
`C[C@]12Cn3cnc(-c4ccc(F)cc4)c3C=C1CCC[C@@H]2[C@](C)(O)c1ccc(F)cc1` gave a Ki at Glucocorticoid receptor [1] of 2 nM. Also, the EC50 was determined as 20 nM at Glucocorticoid receptor [2] and 44 nM at Glucocorticoid receptor [3]. The half-inhibitory concentration (IC50) on Androgen receptor was > 4000 nM.
In the case of `C[C@]12Cn3cnc(-c4ccc(F)cc4)c3C=C1CCC[C@@H]2[C@](C)(O)c1ccncc1`, the IC50 on Androgen receptor was > 4000 nM.
Turning to `Cc1cccc([C@@](C)(O)[C@H]2CCCC3=Cc4c(-c5ccc(F)cc5)ncn4C[C@@]32C)c1`, at Glucocorticoid receptor [1], the inhibition constant (Ki) was 2.5 nM. Besides, the EC50 on Glucocorticoid receptor [2] amounted to 9.5 nM; on Glucocorticoid receptor [3], 99 nM; at Glucocorticoid receptor [4], 1130 nM. At Androgen receptor, the IC50 is > 4000 nM.
The like results for `CC(C)C[C@@](C)(O)[C@H]1CCCC2=Cc3c(-c4ccc(F)cc4)ncn3C[C@@]21C` were, in that order, 9 nM, 132 nM, 133 nM, 876 nM and > 4000 nM.
In the case of `C[C@]12Cc3cnn(-c4ccc(F)cc4)c3C=C1CCC[C@@H]2[C@](C)(O)c1ccc(F)cc1`, on Glucocorticoid receptor [1], the affinity corresponds to a Ki of 2.5 nM. Also, the half-inhibitory concentration (IC50) on Androgen receptor was > 4000 nM.
In turn, `C[C@]12Cn3cnc(-c4ccc(F)cc4)c3C=C1CCC[C@@H]2[C@](C)(O)c1nccs1` yielded a Ki at Glucocorticoid receptor [1] of 3 nM. In addition, the EC50 at Glucocorticoid receptor [2] was 110 nM; at Glucocorticoid receptor [3] it was 92 nM; on Glucocorticoid receptor [4], 572 nM. At Androgen receptor, the IC50 was > 4000 nM.
Turning to `C[C@]12Cn3cnc(-c4ccc(F)cc4)c3C=C1CCC[C@@H]2[C@](C)(O)CCc1ccccc1`, the IC50 at Androgen receptor was > 4000 nM.
`CO[C@](C)(c1cccs1)[C@H]1CCCC2=Cc3c(-c4ccc(F)cc4)ncn3C[C@@]21C` had a Ki on Glucocorticoid receptor [1] of 33 nM. In addition, the EC50 on Glucocorticoid receptor [2] and on Glucocorticoid receptor [3] was > 5000 nM in each case. Besides, at Androgen receptor, the IC50 is > 4000 nM.
As to `C[C@]12Cn3cnc(-c4ccc(F)cc4)c3C=C1CCC[C@@H]2[C@](C)(O)C1CCOCC1`, the IC50 at Androgen receptor was > 4000 nM.
On Glucocorticoid receptor [1], `C[C@]12Cc3cnn(-c4ccc(F)cc4)c3C=C1CCCC2[C@@H](O)c1csc2ccccc12` (stereo not given in full) returned an inhibition constant Ki of 1.8 nM. Also, the EC50 at Glucocorticoid receptor [2] was 1.8 nM.
With `C[C@]12Cn3cnc(-c4ccc(F)cc4)c3C=C1CCC[C@@H]2[C@](C)(O)c1ccc(C#N)cc1`, at Glucocorticoid receptor [1], the affinity, expressed as Ki, was 2.5 nM. Moreover, the EC50 on Glucocorticoid receptor [2] was 59 nM; at Glucocorticoid receptor [3] it was 105 nM; on Glucocorticoid receptor [4], > 10000 nM. In addition, the IC50 at Androgen receptor is > 4000 nM.
Consider `Cc1ccccc1[C@@](C)(O)[C@H]1CCCC2=Cc3c(-c4ccc(F)cc4)ncn3C[C@@]21C`, for which, on Glucocorticoid receptor [1], the inhibitory constant (Ki) stood at 2 nM. Besides, the EC50 was 25 nM at Glucocorticoid receptor [2], 31 nM at Glucocorticoid receptor [3] and 920 nM at Glucocorticoid receptor [4]. Also, the IC50 at Androgen receptor was > 4000 nM.
In the case of `C[C@]12Cn3cnc(-c4ccc(F)cc4)c3C=C1CCC[C@@H]2[C@](C)(O)c1ccccn1`, on Androgen receptor, the half-maximal inhibitory concentration (IC50) is > 4000 nM.
Regarding `C=CCC(O)C1CCCC2=Cc3c(-c4ccc(F)cc4)ncn3CC21C` (single isomer, unassigned; diastereomer 2), on Glucocorticoid receptor [1], the Ki worked out at 9 nM. For the same compound, the concentration for a half-maximal effect (EC50) was > 2500 nM on Glucocorticoid receptor [2] (a549) and > 5000 nM at Glucocorticoid receptor [3] (a549).
As for `C[C@]12Cn3cnc(-c4ccc(F)cc4)c3C=C1CCC[C@@H]2[C@](C)(O)c1cccnc1`, the IC50 at Androgen receptor is > 4000 nM.
Take `C[C@]12Cn3cnc(-c4ccc(F)cc4)c3C=C1CCC[C@@H]2[C@](C)(O)C(F)(F)F`: the Ki at Glucocorticoid receptor [1] is 5.2 nM. Moreover, the EC50 is 31 nM at Glucocorticoid receptor [2] and > 10000 nM at Glucocorticoid receptor [4]. Further, the IC50 at Androgen receptor was > 4000 nM.
Take `Cc1ccc([C@@](C)(O)[C@H]2CCCC3=Cc4c(-c5ccc(F)cc5)ncn4C[C@@]32C)s1`: affinity at Glucocorticoid receptor [1] was put at a Ki of 1.5 nM. For the same compound, the EC50 was determined as 28 nM at Glucocorticoid receptor [2], 18 nM at Glucocorticoid receptor [3] and 272 nM at Glucocorticoid receptor [4]. The IC50 on Androgen receptor was > 4000 nM.
Consider `C[C@]12Cn3cnc(-c4ccc(F)cc4)c3C=C1CCC[C@@H]2[C@](C)(O)c1ccccc1`, for which affinity on Glucocorticoid receptor [1] was put at a Ki of 1 nM. The EC50 on Glucocorticoid receptor [2] was 16 nM; at Glucocorticoid receptor [3], 61 nM; at Glucocorticoid receptor [4], > 5000 nM. On Androgen receptor, the half-inhibitory concentration (IC50) was > 4000 nM.
Take `C[C@]12Cn3cnc(-c4ccc(F)cc4)c3C=C1CCC[C@@H]2[C@](C)(O)c1cccc(C#N)c1`: the affinity at Glucocorticoid receptor [1], expressed as Ki, was 1 nM. The EC50 on Glucocorticoid receptor [2] was 18 nM; at Glucocorticoid receptor [3], 31 nM; at Glucocorticoid receptor [4], > 10000 nM. The half-inhibitory concentration (IC50) on Androgen receptor is > 4000 nM.
At Glucocorticoid receptor [1], `C[C@]12Cn3cnc(-c4ccc(F)cc4)c3C=C1CCC[C@@H]2[C@](C)(O)c1ccsc1` came in with an inhibition constant Ki of 1 nM. In addition, the EC50 on Glucocorticoid receptor [2] is 5 nM; at Glucocorticoid receptor [3], 37 nM; on Glucocorticoid receptor [4], > 10000 nM. Further, the IC50 at Androgen receptor is > 4000 nM.
In the case of `CCCC[C@@](C)(O)[C@H]1CCCC2=Cc3c(-c4ccc(F)cc4)ncn3C[C@@]21C`, the Ki at Glucocorticoid receptor [1] is 7.9 nM. Also, the concentration giving a half-maximal response (EC50) is 34 nM on Glucocorticoid receptor [2], 130 nM at Glucocorticoid receptor [3] and 1130 nM at Glucocorticoid receptor [4]. On Androgen receptor, the half-inhibitory concentration (IC50) was > 4000 nM.
The like results for `C[C@]12Cn3cnc(-c4ccc(F)cc4)c3C=C1CCC[C@@H]2[C@](C)(O)Cc1ccc(F)cc1` were, in that order, 11 nM, 227 nM, 121 nM, 760 nM and > 4000 nM.
For the compound `C[C@]12Cn3cnc(-c4ccc(F)cc4)c3C=C1CCC[C@@H]2[C@H](O)c1ccc(F)cc1` (stereo in doubt; 18), the affinity at Glucocorticoid receptor [1] corresponds to a Ki of 25 nM. Moreover, the concentration giving a half-maximal response (EC50) at Glucocorticoid receptor [2] and at Glucocorticoid receptor [3] was > 5000 nM each time.
At Glucocorticoid receptor [1], `C[C@]12Cn3cnc(-c4ccc(F)cc4)c3C=C1CCC[C@@H]2[C@](C)(O)C1CC1` showed an inhibitory constant (Ki) of 2.6 nM. Also, the concentration for a half-maximal effect (EC50) at Glucocorticoid receptor [2] was 37 nM; on Glucocorticoid receptor [3], 49 nM; at Glucocorticoid receptor [4], > 5000 nM. The IC50 at Androgen receptor is > 4000 nM.
As to `C[C@]12Cc3cnn(-c4ccc(F)cc4)c3C=C1CCC[C@@H]2[C@](C)(O)c1ccsc1`, the inhibitory constant (Ki) on Glucocorticoid receptor [1] came to 0.8 nM. Moreover, the IC50 on Androgen receptor is > 4000 nM.
